Experimental data from PMC3528043, “Synthesis of New N,N’-Bis(5-arylidene-4-oxo-4,5-dihydrothiazolin-2-yl)piperazine Derivatives Under Microwave Irradiation and Preliminary Biological Evaluation” (Scientia Pharmaceutica, 2012).

Legend:
[1] = tested on: Huh7; assay: Cell survival assay, Huh7 (liver) tumor cell line; format: cell-based; details: Homo sapiens, Huh-7; Huh7 liver tumor cells, 48 h exposure, survival by nuclei count; read-out: Cell lines IC50 Huh7
Method: (§1) Skin diploid fibroblastic cells were provided by BIOPREDIC International Company (Rennes, France). Caco-2 cells and Huh7 cells were obtained from the ECAC collection. Cells were grown according to ECAC recommendations. The RLEC-F1 clone was derived from an established rat biliary epithelial cell line as previously described. The toxicity test of the compounds on these cells was as follows: 4 × 10^3 cells were seeded in 96 multiwell plates and left for 24 h for attachment, spreading, and growing. Then they were exposed for 48 h to increasing concentrations of the compounds, ranging from […] in a final volume of 80 μL of culture medium. They were then fixed with 4% paraform-aldehyde solution and the nuclei were stained with […] and counted using automated imaging analysis (Simple PCI software).

[2] = tested on: Caco2; assay: Cell survival assay, Caco2 (colon) tumor cell line; format: cell-based; details: Homo sapiens, Caco-2; Caco2 colon tumor cells, 48 h exposure, survival by nuclei count; read-out: Cell lines IC50 Caco2
Method: as §1

[3] = tested on: MDA-MB 231; assay: Cell survival assay, MDA-MB 231 (breast) tumor cell line; format: cell-based; details: Homo sapiens; MDA-MB 231 breast tumor cells, 48 h exposure, survival by nuclei count; read-out: Cell lines IC50 MDA-MB 231
[4] = tested on: HCT 116; assay: Cell survival assay, HCT 116 (colon) tumor cell line; format: cell-based; details: Homo sapiens; HCT 116 colon tumor cells, 48 h exposure, survival by nuclei count; read-out: Cell lines IC50 HCT 116
[5] = tested on: PC3; assay: Cell survival assay, PC3 (prostate) tumor cell line; format: cell-based; details: Homo sapiens, PC-3; PC3 prostate tumor cells, 48 h exposure, survival by nuclei count; read-out: Cell lines IC50 PC3
[6] = tested on: NCI; assay: Cell survival assay, NCI (lung) tumor cell line; format: cell-based; details: NCI lung tumor cells, 48 h exposure, survival by nuclei count; read-out: Cell lines IC50 NCI
[7] = tested on: Skin diploid fibroblastic cells; assay: Cell survival assay, normal fibroblasts; format: cell-based; details: Fibroblast, 48 h exposure, survival by nuclei count, read-out: Cell lines IC50 Fibroblats
Method: as §1

[8] = biological target: T1, CDK5/p25 (Homo sapiens, UniProt Q00535); assay: In vitro kinase inhibition assay CDK5/p25; format: biochemical; details: for IC50: 15 μM ATP, 30°C, buffer C, histone H1
T1 construct: made in house
T1 sequence (Q00535 whole entry): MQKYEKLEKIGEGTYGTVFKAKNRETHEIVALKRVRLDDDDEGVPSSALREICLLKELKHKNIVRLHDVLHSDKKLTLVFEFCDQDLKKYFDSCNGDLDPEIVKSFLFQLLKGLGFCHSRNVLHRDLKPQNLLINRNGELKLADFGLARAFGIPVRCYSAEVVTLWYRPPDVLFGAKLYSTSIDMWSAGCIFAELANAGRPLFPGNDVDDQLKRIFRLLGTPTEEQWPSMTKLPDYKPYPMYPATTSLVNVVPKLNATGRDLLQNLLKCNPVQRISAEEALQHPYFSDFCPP
T1 sequence (Q15078 99-307 partner limits assumed): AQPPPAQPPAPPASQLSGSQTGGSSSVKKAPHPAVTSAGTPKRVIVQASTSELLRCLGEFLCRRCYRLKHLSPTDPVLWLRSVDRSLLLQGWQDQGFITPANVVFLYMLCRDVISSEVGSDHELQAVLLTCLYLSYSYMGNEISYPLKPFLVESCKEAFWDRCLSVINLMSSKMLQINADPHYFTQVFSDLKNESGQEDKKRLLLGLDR
Method: (§2) Buffer A: 10 mM MgCl2, 1 mM EGTA, 1 mM DTT, 25 mM Tris-HCl pH 7.5, 50 μg heparin/ml. Buffer C: 60 mM ß-glycerophosphate, 15 mM p-nitrophenylphosphate, 25 mM Mops (pH 7.2), 5 mM EGTA, 15 mM MgCl2, 1 mM DTT, 1 mM sodium vanadate, 1 mM phenylphosphate. […] Blank values were subtracted and activities expressed in % of the maximal activity, i.e. in the absence of inhibitors. Controls were performed with appropriate dilutions of DMSO. The kinase peptide substrates were obtained from Millegen (Labege, France). […] ATP (3,000 Ci/mmol; 10 mCi/ml) in a final volume of 30 μl. After 30 min incubation at 30°C, the reaction was stopped by harvesting onto P81 phosphocellulose papers (Whatman) using a FilterMate harvester (Packard) and were washed in 1% phosphoric acid. Scintillation fluid was added and the radioactivity was measured in a Packard counter. CLK1 and CLK3 (human, recombinant, expressed in E. coli as GST fusion proteins) were assayed in buffer A (+ 0.15 mg BSA /ml) with RS peptide ([sequence]) (1μg/assay). […] Its kinase activity was assayed in buffer C, with 1 μg histone H1 /ml. GSK-3α/β (porcine brain, native) was assayed in Buffer A and using a GSK-3 specific substrate (GS-1: [sequence]pEDEEE) (pS stands for phosphorylated serine) [20].

[9] = biological target: GSK-3α/β; assay: In vitro kinase inhibition assay GSK3α/β; format: biochemical, porcine; details: for IC50: 15 μM ATP, 30°C, buffer A, GS-1 substrate
Method: as §2

[10] = biological target: DYRK1A (Homo sapiens, UniProt Q13627); assay: In vitro kinase inhibition assay DYRK1A; format: biochemical; details: for IC50: 15 μM ATP, 30°C, buffer A, Woodtide substrate
Method: as §2

[11] = biological target: T2, DYRK2 (Homo sapiens, UniProt Q92630); assay: In vitro kinase inhibition assay DYRK2; format: biochemical; details: for IC50: 15 μM ATP, 30°C, buffer A, Woodtide substrate
T2 sequence (Q92630 1-601): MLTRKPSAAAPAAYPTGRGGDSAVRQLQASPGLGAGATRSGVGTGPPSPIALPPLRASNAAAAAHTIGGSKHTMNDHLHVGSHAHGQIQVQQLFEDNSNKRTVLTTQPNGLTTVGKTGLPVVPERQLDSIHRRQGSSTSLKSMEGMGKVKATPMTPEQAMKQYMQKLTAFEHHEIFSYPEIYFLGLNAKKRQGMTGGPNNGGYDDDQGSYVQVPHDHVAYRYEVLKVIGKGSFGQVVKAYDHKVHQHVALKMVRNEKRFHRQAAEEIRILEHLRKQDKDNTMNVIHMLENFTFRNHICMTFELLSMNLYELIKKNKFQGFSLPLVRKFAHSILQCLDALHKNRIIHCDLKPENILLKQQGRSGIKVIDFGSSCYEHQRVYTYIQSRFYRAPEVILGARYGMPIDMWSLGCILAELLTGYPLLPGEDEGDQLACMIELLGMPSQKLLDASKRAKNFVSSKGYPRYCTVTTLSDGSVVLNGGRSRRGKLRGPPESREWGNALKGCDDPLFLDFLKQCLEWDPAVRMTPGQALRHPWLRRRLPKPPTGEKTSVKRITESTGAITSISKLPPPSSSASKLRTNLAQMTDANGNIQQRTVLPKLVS

[12] = biological target: CLK1 (Homo sapiens, UniProt P49759); assay: In vitro kinase inhibition assay CLK1; format: biochemical; details: for IC50: 15 μM ATP, 30°C, buffer A, RS peptide
CLK1, sequence (P49759 whole entry): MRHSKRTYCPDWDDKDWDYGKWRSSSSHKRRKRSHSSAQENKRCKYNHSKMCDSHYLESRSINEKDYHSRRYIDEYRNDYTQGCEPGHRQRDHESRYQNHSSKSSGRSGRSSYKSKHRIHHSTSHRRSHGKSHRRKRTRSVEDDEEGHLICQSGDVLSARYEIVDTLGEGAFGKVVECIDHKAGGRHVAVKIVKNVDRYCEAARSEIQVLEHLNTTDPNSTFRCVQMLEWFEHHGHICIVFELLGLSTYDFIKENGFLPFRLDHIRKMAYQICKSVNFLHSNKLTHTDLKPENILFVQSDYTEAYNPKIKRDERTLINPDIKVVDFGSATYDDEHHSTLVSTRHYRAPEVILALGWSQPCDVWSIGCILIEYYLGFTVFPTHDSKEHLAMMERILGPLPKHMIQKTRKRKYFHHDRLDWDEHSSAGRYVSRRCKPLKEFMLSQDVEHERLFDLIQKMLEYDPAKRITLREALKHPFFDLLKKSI
Method: as §2

[13] = biological target: CLK2; assay: In vitro kinase inhibition assay CLK2; format: biochemical, human; details: for IC50: 15 μM ATP, 30°C, buffer A, RS peptide
Method: Buffer A: 10 mM MgCl2, 1 mM EGTA, 1 mM DTT, 25 mM Tris-HCl pH 7.5, 50 μg heparin/ml. […] Blank values were subtracted and activities expressed in % of the maximal activity, i.e. in the absence of inhibitors. Controls were performed with appropriate dilutions of DMSO. The kinase peptide substrates were obtained from Millegen (Labege, France). […] ATP (3,000 Ci/mmol; 10 mCi/ml) in a final volume of 30 μl. After 30 min incubation at 30°C, the reaction was stopped by harvesting onto P81 phosphocellulose papers (Whatman) using a FilterMate harvester (Packard) and were washed in 1% phosphoric acid. Scintillation fluid was added and the radioactivity was measured in a Packard counter.

O=C(O)CCN1C(=O)/C(=C/c2ccc3c(c2)OCCO3)SC1=S [Compound 3g, 3-[(5Z)-5-(2,3-Dihydro-1,4-benzodioxin-6-ylmethylidene)-4-oxo-2-thioxo-1,3-thiazolidin-3-yl]propanoic acid]
melting point: 226 to 228 °C

COc1ccc(/C=C2\SC(N3CCN(C4=NC(=O)/C(=C/c5ccc(OC)cc5)S4)CC3)=NC2=O)cc1 [Compound 5b, (5Z,5’Z)-2,2’-(Piperazine-1,4-diyl)bis[5-(4-methoxybenzylidene)-1,3-thiazol-4(5H)-one]]
melting point: > 260 °C

O=C1N=C(N2CCN(C3=NC(=O)/C(=C/c4ccc5c(c4)OCO5)S3)CC2)S/C1=C\c1ccc2c(c1)OCO2 [Compound 5c, (5Z,5’Z)-2,2’-(Piperazine-1,4-diyl)bis[5-(1,3-benzodioxol-5-ylmethylene)-1,3-thiazol-4(5H)-one]]
IC50 [1]: > 25 µM
IC50 [2]: 20 µM
IC50 [3]: > 25 µM
IC50 [4]: > 25 µM
IC50 [5]: 40 µM
IC50 [6]: > 25 µM
IC50 [7]: 40 µM

O=C(O)CCN1C(=O)/C(=C/c2ccccc2)SC1=S [Compound 3d, 3-[(5Z)-5-Benzylidene-4-oxo-2-thioxo-1,3-thiazolidin-3-yl]propanoic acid]
melting point: 224 to 226 °C

O=C1NC(=S)S/C1=C\c1ccc2c(c1)OCO2 [Compound 3c, (5Z)-5-(1,3-Benzodioxol-5-ylmethylidene)-2-thioxo-1,3-thiazolidin-4-one]
IC50 [1]: > 25 µM
IC50 [2]: > 25 µM
IC50 [3]: > 25 µM
IC50 [4]: > 25 µM
IC50 [5]: > 25 µM
IC50 [6]: > 25 µM
IC50 [7]: > 25 µM
IC50 [8]: > 10 µM
IC50 [9]: 8.5 µM
IC50 [10]: 0.07 µM

COc1ccc(/C=C2\SC(NCCCN3CCN(CCCNC4=NC(=O)/C(=C/c5ccc(OC)cc5)S4)CC3)=NC2=O)cc1 [Compound 5d, (5Z,5’Z)-2,2’-[Piperazine-1,4-diylbis(propane-3,1-diylimino)]bis[5-(4-methoxybenzylidene)-1,3-thiazol-4(5H)-one]]
IC50 [8]: > 10 µM
IC50 [9]: > 10 µM
Activity towards DYRK1A (in words) [10]: nanomolar inhibition potency
IC50 [10]: 0.041 µM
IC50 [11]: 0.6 µM
IC50 [12]: 0.5 µM
IC50 [13]: 7.7 µM
melting point: 220 to 222 °C

O=C1N=C(N2CCN(C3=NC(=O)/C(=C/c4ccccc4)S3)CC2)S/C1=C\c1ccccc1 [Compound 5a, (5Z,5’Z)-2,2’-(Piperazine-1,4-diyl)bis(5-benzylidene-1,3-thiazol-4(5H)-one)]
IC50 [1]: > 25 µM
IC50 [2]: 25 µM
IC50 [3]: > 25 µM
IC50 [4]: > 25 µM
IC50 [5]: > 25 µM
IC50 [6]: > 25 µM
IC50 [7]: > 25 µM
melting point: > 260 °C

COc1ccc(/C=C2\SC(=S)NC2=O)cc1 [Compound 3b, (5Z)-5-(4-Methoxybenzylidene)-2-thioxo-1,3-thiazolidin-4-one]
IC50 [1]: > 25 µM
IC50 [2]: > 25 µM
IC50 [3]: > 25 µM
IC50 [4]: > 25 µM
IC50 [5]: > 25 µM
IC50 [6]: > 25 µM
IC50 [7]: > 25 µM
Activity towards CDK5/p25 (in words) [8]: inactive
IC50 [8]: > 10 µM
Activity towards GSK3α/β (in words) [9]: inactive
IC50 [9]: > 10 µM
Activity towards DYRK1A (in words) [10]: inactive
IC50 [10]: > 10 µM
Activity towards DYRK2 (in words) [11]: inactive
IC50 [11]: > 10 µM
Activity towards CLK1 (in words) [12]: inactive
IC50 [12]: > 10 µM
Activity towards CLK2 (in words) [13]: inactive
IC50 [13]: > 10 µM

O=C1N=C(NCCCN2CCN(CCCNC3=NC(=O)/C(=C/c4ccc5c(c4)OCO5)S3)CC2)S/C1=C\c1ccc2c(c1)OCO2 [Compound 5e, (5Z,5’Z)-2,2’-[Piperazine-1,4-diylbis(propane-3,1-diylimino)]bis[5-(1,3-benzodioxol-5-ylmethylene)-1,3-thiazol-4(5H)-one]]
melting point: 222 to 224 °C
